Drawing on ChEMBL document CHEMBL5241130, “Integrating a phenotypic screening with a structural simplification strategy to identify 4-phenoxy-quinoline derivatives to potently disrupt the mitotic localization of Aurora kinase B” (Bioorg Med Chem, 2023), this text covers Activity and MEC for two compounds.

Common to all, as to type: cell-based
Experiment [1] has as its target Aurora kinase B (Homo sapiens) (UniProt Q96GD4). The experiment can be described thus: Disruption of mitotic localization of AURKB in human RPE-MYC H2B-GFP cells assessed as proportion of polyploid cells in fully attached cell population at 10 uM measured after 72 hrs by fluorescence high content cell imaging analysis (Rvb <1%).
For experiment [2] the target is unchanged. The experiment can be described thus: Inhibition of AURKB in human RPE-MYC H2B-GFP cells assessed as inhibition of histone H3 phosphorylation at Ser10 residue by measuring residual enzyme activity at 20 uM measured after 6 hrs by immunofluorescence staining analysis (reference value: 100 +/-9%).
Experiment [3] shares this target. Description: Disruption of mitotic localization of AURKB in human RPE-MYC H2B-GFP cells assessed as proportion of polyploid cells in fully attached cell population at 40 uM measured after 72 hrs by fluorescence high content cell imaging analysis (Rvb <1%).
For experiment [4] the target is unchanged. Description: Disruption of mitotic localization of AURKB in human RPE-MYC H2B-GFP cells assessed as mitotic index at 10 uM measured after 6 hrs by fluorescence high content cell imaging analysis (reference value: 4.7+/-0.4%).
For experiment [5] the target is unchanged. The experiment can be described thus: Inhibition of AURKB in human RPE-MYC H2B-GFP cells assessed as inhibition of histone H3 phosphorylation at Ser10 residue by measuring residual enzyme activity at 10 uM measured after 6 hrs by immunofluorescence staining analysis (reference value: 100 +/-9%).
The target is the same in experiment [6]. Description: Disruption of mitotic localization of AURKB in human RPE-MYC H2B-GFP cells assessed as mitotic index at 20 uM measured after 6 hrs by fluorescence high content cell imaging analysis (reference value: 4.7+/-0.4%).
Experiment [7] shares this target. The experiment can be described thus: Disruption of mitotic localization of AURKB in human RPE-MYC H2B-GFP cells assessed as induction of polyploidy by fluorescence high content cell imaging analysis.
Experiment [8] shares this target. Description: Disruption of mitotic localization of AURKB in human RPE-MYC H2B-GFP cells assessed as mitotic index at 40 uM measured after 6 hrs by fluorescence high content cell imaging analysis (reference value: 4.7+/-0.4%).
Experiment [9] has the same target. The experiment can be described thus: Disruption of mitotic localization of AURKB in human RPE-MYC H2B-GFP cells assessed as proportion of polyploid cells in fully attached cell population at 20 uM measured after 72 hrs by fluorescence high content cell imaging analysis (Rvb <1%).
Experiment [10] addresses T1, Aurora kinase A (Homo sapiens) (UniProt O14965).
T1 sequence (whole entry): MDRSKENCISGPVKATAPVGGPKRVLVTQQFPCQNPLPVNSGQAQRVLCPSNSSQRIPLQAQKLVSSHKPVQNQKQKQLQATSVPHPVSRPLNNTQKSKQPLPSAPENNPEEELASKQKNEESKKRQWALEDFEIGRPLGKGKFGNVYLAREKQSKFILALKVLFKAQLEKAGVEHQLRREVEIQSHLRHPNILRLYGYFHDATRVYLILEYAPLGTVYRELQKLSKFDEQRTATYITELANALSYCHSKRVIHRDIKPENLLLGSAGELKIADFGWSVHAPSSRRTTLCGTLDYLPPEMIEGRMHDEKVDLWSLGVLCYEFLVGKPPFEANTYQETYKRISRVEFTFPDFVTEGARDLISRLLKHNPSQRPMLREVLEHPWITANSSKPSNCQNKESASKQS
The experiment can be described thus: Inhibition of AURKA in human RPE-MYC H2B-GFP cells assessed as inhibition of autophosphorylation of AURKA at Thr288 residue by measuring residual enzyme activity at 10 uM measured after 6 hrs by immunofluorescence staining analysis (reference value: 100 +/-1%).

In experiment [11] the target is T1, Aurora kinase A (Homo sapiens). The experiment can be described thus: Inhibition of AURKA in human RPE-MYC H2B-GFP cells assessed as inhibition of autophosphorylation of AURKA at Thr288 residue by measuring residual enzyme activity at 40 uM measured after 6 hrs by immunofluorescence staining analysis (reference value: 100+/-1%).
For experiment [12], the target named is Aurora kinase B (Homo sapiens) (UniProt Q96GD4). The experiment can be described thus: Inhibition of AURKB in human RPE-MYC H2B-GFP cells assessed as inhibition of histone H3 phosphorylation at Ser10 residue by measuring residual enzyme activity at 40 uM measured after 6 hrs by immunofluorescence staining analysis (reference value: 100 +/-9%).
Sequence of Aurora kinase B (Homo sapiens) (Q96GD4 whole entry): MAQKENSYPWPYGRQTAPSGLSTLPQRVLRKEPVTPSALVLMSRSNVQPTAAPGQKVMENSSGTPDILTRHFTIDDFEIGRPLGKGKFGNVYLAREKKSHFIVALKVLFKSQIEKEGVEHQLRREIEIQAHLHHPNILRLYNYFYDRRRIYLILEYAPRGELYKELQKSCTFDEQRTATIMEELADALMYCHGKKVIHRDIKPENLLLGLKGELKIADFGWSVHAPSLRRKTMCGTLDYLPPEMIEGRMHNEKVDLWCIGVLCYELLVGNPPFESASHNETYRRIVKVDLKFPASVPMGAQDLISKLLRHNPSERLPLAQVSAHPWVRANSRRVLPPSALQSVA
The target in experiment [13] is T1, Aurora kinase A (Homo sapiens). Description: Inhibition of AURKA in human RPE-MYC H2B-GFP cells assessed as inhibition of autophosphorylation of AURKA at Thr288 residue by measuring residual enzyme activity at 20 uM measured after 6 hrs by immunofluorescence staining analysis (reference value: 100 +/-1%).
In experiment [14] the target is Aurora kinase B (Homo sapiens) (UniProt Q96GD4). Description: Disruption of mitotic localization of AURKB in human RPE-MYC H2B-GFP cells assessed as induction of mitotic arrest measured after 24 hrs by fluorescence high content cell imaging analysis.
The target is the same in experiment [15]. The experiment can be described thus: Disruption of mitotic localization of AURKB in human RPE-MYC H2B-GFP cells assessed as mitotic index at 0.156 uM measured after 6 hrs by fluorescence high content cell imaging analysis (reference value: 4.7+/-0.4%).
Experiment [16] deals with T1, Aurora kinase A (Homo sapiens). The experiment can be described thus: Inhibition of AURKA in human RPE-MYC H2B-GFP cells assessed as inhibition of autophosphorylation of AURKA at Thr288 residue by measuring residual enzyme activity at 0.312 uM measured after 6 hrs by immunofluorescence staining analysis (reference value: 100 +/-1%).
Experiment [17] shares this target. Description: Inhibition of AURKA in human RPE-MYC H2B-GFP cells assessed as inhibition of autophosphorylation of AURKA at Thr288 residue by measuring residual enzyme activity at 0.078 uM measured after 6 hrs by immunofluorescence staining analysis (reference value: 100 +/-1%).
Experiment [18] has as its target Aurora kinase B (Homo sapiens) (UniProt Q96GD4). Description: Disruption of mitotic localization of AURKB in human RPE-MYC H2B-GFP cells assessed as mitotic index at 0.078 uM measured after 6 hrs by fluorescence high content cell imaging analysis (reference value: 4.7+/-0.4%).
Experiment [19] shares this target. The experiment can be described thus: Disruption of mitotic localization of AURKB in human RPE-MYC H2B-GFP cells assessed as proportion of polyploid cells in fully attached cell population at 0.078 uM measured after 48 hrs by fluorescence high content cell imaging analysis (Rvb <1%).
For experiment [20] the target is unchanged. The experiment can be described thus: Inhibition of AURKB in human RPE-MYC H2B-GFP cells assessed as inhibition of histone H3 phosphorylation at Ser10 residue by measuring residual enzyme activity at 0.312 uM measured after 6 hrs by immunofluorescence staining analysis (reference value: 100 +/-9%).
For experiment [21] the target is unchanged. Description: Inhibition of AURKB in human RPE-MYC H2B-GFP cells assessed as inhibition of histone H3 phosphorylation at Ser10 residue by measuring residual enzyme activity at 0.078 uM measured after 6 hrs by immunofluorescence staining analysis (reference value: 100 +/-9%).
The target is the same in experiment [22]. The experiment can be described thus: Disruption of mitotic localization of AURKB in human RPE-MYC H2B-GFP cells assessed as mitotic index at 0.312 uM measured after 6 hrs by fluorescence high content cell imaging analysis (reference value: 4.7+/-0.4%).
For experiment [23] the target is unchanged. Description: Disruption of mitotic localization of AURKB in human RPE-MYC H2B-GFP cells assessed as proportion of polyploid cells in fully attached cell population at 0.312 uM measured after 48 hrs by fluorescence high content cell imaging analysis (Rvb <1%).
Experiment [24] has the same target. The experiment can be described thus: Inhibition of AURKB in human RPE-MYC H2B-GFP cells assessed as inhibition of histone H3 phosphorylation at Ser10 residue by measuring residual enzyme activity at 0.156 uM measured after 6 hrs by immunofluorescence staining analysis (reference value: 100 +/-9%).
Experiment [25] deals with T1, Aurora kinase A (Homo sapiens). Description: Inhibition of AURKA in human RPE-MYC H2B-GFP cells assessed as inhibition of autophosphorylation of AURKA at Thr288 residue by measuring residual enzyme activity at 0.156 uM measured after 6 hrs by immunofluorescence staining analysis (reference value: 100 +/-1%).
For experiment [26], the target named is Aurora kinase B (Homo sapiens) (UniProt Q96GD4). The experiment can be described thus: Disruption of mitotic localization of AURKB in human RPE-MYC H2B-GFP cells assessed as proportion of polyploid cells in fully attached cell population at 0.156 uM measured after 48 hrs by fluorescence high content cell imaging analysis (Rvb <1%).

For the compound `Nc1ccc(Oc2ccnc3ccccc23)cc1`, the Activity in [1] turned out to be 100%; in [2], 102%; in experiment [3] it was 100%; in experiment [4], 15.6%; in experiment [5], 104%; in experiment [6] it was 16.2%. The Activity turned out to be 15.6% in experiment [8]; 100% in experiment [9]; 106% in experiment [10]; 115% in experiment [11]; 105% in experiment [12]; 109% in experiment [13]. The MEC in [7] and in [14] was 10 µM throughout.
Take `Cc1csc(-c2nnc(Nc3ccc(Oc4ccnc5ccccc45)cc3)c3ccccc23)c1`: the Activity turned out to be 9.8% in [15]; 100% in [16]; 100% in [17]; 11% in [18]; 100% in [19]; 0% in experiment [20]. Further, the Activity in experiment [21] is 98%; in experiment [22], 10.1%; in experiment [23], 100%; in [24], 21.4%; in experiment [25], 100%; in experiment [26] it was 100%.
